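Test compounds were applied to cells in 96-well plates for 48 hours at 5 doses. Here, GI50 denotes the concentration required for 50% inhibition of growth. The concentration for full growth arrest is given as TGI.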
Columns and labels:
Experiment in all cases: inhibition of tumour cell growth, NCI panel, 48 h
CCRF-CEM leukemia = test system: CCRF-CEM leukemia
NCI-H23 lung = test system: NCI-H23 lung
NCI/ADR-RES ovarian = test system: NCI/ADR-RES ovarian
HCC-2998 colon = test system: HCC-2998 colon
TK-10 renal = test system: TK-10 renal
SK-MEL-5 melanoma = test system: SK-MEL-5 melanoma
SK-MEL-28 melanoma = test system: SK-MEL-28 melanoma
HCT-116 colon = test system: HCT-116 colon
HOP-62 NSCLC = test system: HOP-62 NSCLC
SF-268 CNS = test system: SF-268 CNS
MOLT-4 leukemia = test system: MOLT-4 leukemia
SF-295 CNS = test system: SF-295 CNS
MALME-3M melanoma = test system: MALME-3M melanoma
OVCAR-8 ovarian = test system: OVCAR-8 ovarian
OVCAR-5 ovarian = test system: OVCAR-5 ovarian
UO-31 renal = test system: UO-31 renal
EKVX NSCLC = test system: EKVX NSCLC
A498 renal = test system: A498 renal
COLO 205 colon = test system: COLO 205 colon
ACHN renal = test system: ACHN renal
MCF7 breast = test system: MCF7 breast
SK-MEL-2 melanoma = test system: SK-MEL-2 melanoma
IGROV1 ovarian = test system: IGROV1 ovarian
LOX IMVI melanoma = test system: LOX IMVI melanoma
SNB-19 CNS = test system: SNB-19 CNS
KM12 colon = test system: KM12 colon
OVCAR-4 ovarian = test system: OVCAR-4 ovarian
MDA-MB-435 = test system: MDA-MB-435
HS 578T breast = test system: HS 578T breast
OVCAR-3 ovarian = test system: OVCAR-3 ovarian
HT29 colon = test system: HT29 colon
HL-60(TB) leukemia = test system: HL-60(TB) leukemia
786-0 renal = test system: 786-0 renal
HCT-15 colon = test system: HCT-15 colon
NCI-H226 lung = test system: NCI-H226 lung
HOP-92 NSCLC = test system: HOP-92 NSCLC
K-562 leukemia = test system: K-562 leukemia
MDA-MB-231 breast = test system: MDA-MB-231 breast
SF-539 CNS = test system: SF-539 CNS
SN12C renal = test system: SN12C renal
A549 NSCLC = test system: A549 NSCLC
UACC-62 melanoma = test system: UACC-62 melanoma
UACC-257 melanoma = test system: UACC-257 melanoma
CAKI-1 renal = test system: CAKI-1 renal
NCI-H522 lung = test system: NCI-H522 lung
SNB-75 CNS = test system: SNB-75 CNS
PC-3 prostate = test system: PC-3 prostate
SK-OV-3 ovarian = test system: SK-OV-3 ovarian
SR leukemia = test system: SR leukemia
T-47D breast = test system: T-47D breast
DU-145 prostate = test system: DU-145 prostate
SW-620 colon = test system: SW-620 colon
RPMI-8226 leukemia = test system: RPMI-8226 leukemia
NCI-H460 lung = test system: NCI-H460 lung
M14 melanoma = test system: M14 melanoma
BT-549 breast = test system: BT-549 breast
RXF 393 renal = test system: RXF 393 renal
U251 CNS = test system: U251 CNS

## O=[N+]([O-])c1ccc2c(N=Nc3ccc4ccccc4c3O)c(O)cc(S(=O)(=O)O)c2c1
CCRF-CEM leukemia
  TGI: 22 µM
NCI-H23 lung
  TGI: > 93.4 µM
NCI/ADR-RES ovarian
  TGI: > 90.3 µM
HCC-2998 colon
  TGI: > 100 µM
TK-10 renal
  TGI: > 100 µM
SK-MEL-5 melanoma
  TGI: 53.6 µM
SK-MEL-28 melanoma
  TGI: > 100 µM
HCT-116 colon
  TGI: > 100 µM
HOP-62 NSCLC
  TGI: 99.7 µM
SF-268 CNS
  TGI: 63.9 µM
MOLT-4 leukemia
  TGI: > 51 µM
SF-295 CNS
  TGI: > 85.7 µM
MALME-3M melanoma
  TGI: 85 µM
OVCAR-8 ovarian
  TGI: > 93.6 µM
OVCAR-5 ovarian
  TGI: > 100 µM
UO-31 renal
  TGI: 47.4 µM
EKVX NSCLC
  TGI: > 82.1 µM
A498 renal
  TGI: > 100 µM
COLO 205 colon
  TGI: > 82.9 µM
ACHN renal
  TGI: 50.3 µM
MCF7 breast
  TGI: > 100 µM
SK-MEL-2 melanoma
  TGI: > 100 µM
IGROV1 ovarian
  TGI: > 61.9 µM
LOX IMVI melanoma
  TGI: > 90.2 µM
SNB-19 CNS
  TGI: > 83.2 µM
KM12 colon
  TGI: > 100 µM
OVCAR-4 ovarian
  TGI: > 100 µM
MDA-MB-435
  TGI: > 100 µM
HS 578T breast
  TGI: > 100 µM
OVCAR-3 ovarian
  TGI: 99.5 µM
HT29 colon
  TGI: > 100 µM
HL-60(TB) leukemia
  TGI: 23.1 µM
786-0 renal
  TGI: > 81.1 µM
HCT-15 colon
  TGI: > 100 µM
NCI-H226 lung
  TGI: 52.5 µM
HOP-92 NSCLC
  TGI: > 100 µM
K-562 leukemia
  TGI: > 95.1 µM
MDA-MB-231 breast
  TGI: > 100 µM
SF-539 CNS
  TGI: > 28.5 µM
SN12C renal
  TGI: > 100 µM
A549 NSCLC
  TGI: > 100 µM
UACC-62 melanoma
  TGI: 71.9 µM
UACC-257 melanoma
  TGI: > 100 µM
CAKI-1 renal
  TGI: > 80.6 µM
NCI-H522 lung
  TGI: > 57.3 µM
SNB-75 CNS
  TGI: > 93.6 µM
PC-3 prostate
  TGI: > 100 µM
SK-OV-3 ovarian
  TGI: > 100 µM
SR leukemia
  TGI: > 69.4 µM
T-47D breast
  TGI: > 100 µM
DU-145 prostate
  TGI: > 88.4 µM
SW-620 colon
  TGI: > 100 µM
RPMI-8226 leukemia
  TGI: 61.5 µM
NCI-H460 lung
  TGI: > 100 µM
M14 melanoma
  TGI: 32.4 µM
BT-549 breast
  TGI: > 100 µM
RXF 393 renal
  TGI: > 100 µM
U251 CNS
  TGI: > 100 µM

## CCN(CC)CCNC(=O)C(Cl)=C1C(Cl)=C(Cl)C(Cl)=C1Cl
CCRF-CEM leukemia
  GI50: 3.15 µM
  TGI: > 100 µM
NCI-H23 lung
  GI50: 5.44 µM
  TGI: 26.5 µM
NCI/ADR-RES ovarian
  GI50: 2.98 µM
  TGI: > 100 µM
HCC-2998 colon
  GI50: 8.08 µM
  TGI: 22.8 µM
TK-10 renal
  GI50: 3.07 µM
  TGI: > 100 µM
SK-MEL-5 melanoma
  GI50: 2.98 µM
  TGI: 11.1 µM
SK-MEL-28 melanoma
  GI50: 2.45 µM
  TGI: 7.11 µM
HCT-116 colon
  GI50: 1.78 µM
  TGI: 4.4 µM
HOP-62 NSCLC
  GI50: 3.94 µM
  TGI: 15.5 µM
SF-268 CNS
  GI50: 3.25 µM
  TGI: 22 µM
SF-295 CNS
  GI50: 5.39 µM
  TGI: 29.3 µM
MALME-3M melanoma
  GI50: 11.9 µM
  TGI: 47.3 µM
OVCAR-8 ovarian
  GI50: 2.81 µM
  TGI: > 100 µM
OVCAR-5 ovarian
  GI50: 4.82 µM
  TGI: 27.8 µM
UO-31 renal
  GI50: 6.88 µM
  TGI: 26 µM
EKVX NSCLC
  GI50: 6.44 µM
  TGI: > 100 µM
A498 renal
  GI50: 2.59 µM
  TGI: 12.5 µM
COLO 205 colon
  GI50: 4.21 µM
  TGI: 13.4 µM
ACHN renal
  GI50: 3.35 µM
  TGI: 24.6 µM
MCF7 breast
  GI50: 2.8 µM
  TGI: 13.5 µM
SK-MEL-2 melanoma
  GI50: 3 µM
  TGI: 11.6 µM
IGROV1 ovarian
  GI50: 3.19 µM
  TGI: > 100 µM
LOX IMVI melanoma
  GI50: 1.83 µM
  TGI: 4.53 µM
SNB-19 CNS
  GI50: 10.9 µM
  TGI: 29.6 µM
KM12 colon
  GI50: 2.75 µM
  TGI: 10.6 µM
OVCAR-4 ovarian
  GI50: 4.17 µM
  TGI: 15.6 µM
MDA-MB-435
  GI50: 2.24 µM
  TGI: 6.54 µM
HS 578T breast
  GI50: 3.01 µM
  TGI: 25.3 µM
OVCAR-3 ovarian
  GI50: 2.45 µM
  TGI: 7.45 µM
HT29 colon
  GI50: 3.49 µM
  TGI: 12.2 µM
HL-60(TB) leukemia
  GI50: 3.35 µM
  TGI: 7.06 µM
786-0 renal
  GI50: 5.07 µM
  TGI: 41.7 µM
HCT-15 colon
  GI50: 2.78 µM
  TGI: 12.7 µM
NCI-H226 lung
  GI50: 4.08 µM
  TGI: 35.8 µM
HOP-92 NSCLC
  GI50: 2.37 µM
  TGI: 8.62 µM
K-562 leukemia
  GI50: 3.56 µM
  TGI: > 100 µM
MDA-MB-231 breast
  GI50: 3.83 µM
  TGI: 31.3 µM
SF-539 CNS
  GI50: 4.33 µM
  TGI: 53.1 µM
SN12C renal
  GI50: 4.03 µM
  TGI: 49.8 µM
A549 NSCLC
  GI50: 4.22 µM
  TGI: 76.9 µM
UACC-62 melanoma
  GI50: 2.18 µM
  TGI: 12.4 µM
UACC-257 melanoma
  GI50: 2.49 µM
  TGI: 11.7 µM
CAKI-1 renal
  GI50: 2.73 µM
  TGI: > 100 µM
NCI-H522 lung
  GI50: 1.47 µM
  TGI: 3.21 µM
SNB-75 CNS
  GI50: 2.21 µM
  TGI: 6.78 µM
PC-3 prostate
  GI50: 4.23 µM
  TGI: 41.3 µM
SK-OV-3 ovarian
  GI50: 3.21 µM
  TGI: > 100 µM
SR leukemia
  GI50: 3.36 µM
  TGI: > 100 µM
T-47D breast
  GI50: 4.19 µM
  TGI: 45.6 µM
DU-145 prostate
  GI50: 2.78 µM
  TGI: 10.8 µM
SW-620 colon
  GI50: 3.25 µM
  TGI: 12.5 µM
RPMI-8226 leukemia
  GI50: 3.02 µM
  TGI: 10.8 µM
NCI-H460 lung
  GI50: 2.71 µM
  TGI: 11.1 µM
BT-549 breast
  GI50: 12.6 µM
  TGI: 25.3 µM
RXF 393 renal
  GI50: 3.76 µM
  TGI: 15.9 µM
U251 CNS
  GI50: 2.85 µM
  TGI: 10.2 µM

From PubChem BioAssay (NCI)
